The results in this text go back to patent publication US20070141641A1, “Compositions & methods for reformulating biological membranes for arrays” (priority 2003, published 2007).

Experiment [1] concerns MOTR, NTR1, ORL1, OP1 receptor microspots. As to the kind of experiment: GPCR membrane microarray, labeled-ligand cocktail binding with or without telenzepine, other receptor microspots. As to conditions: 1 μM telenzepin, FIG. 1B. The source says:
(§1) FIG. 1A and FIG. 1B are false-color fluorescence images of two membrane microarrays made using six different GPCR-membrane preparations (from left to right, they are HEK cell membrane as control, muscarinic receptor subtype 1 (M1), motilin receptor (MOTR), neurotensin receptor subtype 1 (NTR1), opioid receptor like subtype 1 (ORL1) and delta 2 opioid receptor (OP1)).
(§2) FIGS. 1A & 1B are false-color fluorescence image of a membrane microarray made using six different GPCR-membrane preparations. The images, in Cy5 to Cy3 ratio, are taken after the array is assayed with a binding buffered solution containing a mixture or cocktail solution of labeled ligands. […] FIGS. 1A and 1B are, respectively, in the absence and presence of 1 μM telenzepin. Before array fabrication, all receptor membranes obtained from commercial vendors are re-formulated using a standardized ink containing: ˜20 mM Tris-HCl, pH 7.4, ˜10 mM MgCl2, ˜10% sucrose, 5% glycerol, 0.5% BSA, total membrane proteins in the range of 1 to 3 mg/ml.

Experiment [2] addresses T1, muscarinic receptor subtype 1 (M1) (Homo sapiens, UniProt P11229).
T1 sequence (P11229 1-460): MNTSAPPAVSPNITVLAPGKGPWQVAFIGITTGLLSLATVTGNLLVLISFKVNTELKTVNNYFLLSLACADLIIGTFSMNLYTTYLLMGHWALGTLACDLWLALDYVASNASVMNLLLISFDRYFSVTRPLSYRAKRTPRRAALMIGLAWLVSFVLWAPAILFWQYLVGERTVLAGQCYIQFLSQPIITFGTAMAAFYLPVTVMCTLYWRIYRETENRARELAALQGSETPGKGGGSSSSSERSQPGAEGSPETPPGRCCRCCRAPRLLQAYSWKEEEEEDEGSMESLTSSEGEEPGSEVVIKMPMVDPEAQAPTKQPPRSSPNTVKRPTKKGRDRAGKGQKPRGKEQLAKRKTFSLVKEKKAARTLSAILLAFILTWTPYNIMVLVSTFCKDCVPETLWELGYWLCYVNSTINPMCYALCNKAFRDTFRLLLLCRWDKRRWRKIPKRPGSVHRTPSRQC
As to the kind of experiment: GPCR membrane microarray, labeled-ligand cocktail binding with or without telenzepine, M1 microspots. As to conditions: 1 μM telenzepin; cocktail with 2 nM Cy3-B-telenzepine; FIG. 1B.
Excerpt: as §1, §2

`Cc1scc2c1N(C(=O)CN1CCN(C)CC1)c1ccccc1NC2=O` [telenzepine]: the “inhibition of labeled ligand binding to other receptor microspots” value in experiment [1] is reported as “not any other receptor microspots”. For the same molecule, the “inhibition of labeled ligand binding to M1 microspots” value in experiment [2] is listed as “specifically inhibits the binding of labeled ligand to M1 microspots”.
